A word on the IC50: it is the concentration needed to halve the response being measured. A high value points to a need for much substance.

The target in this assay is T1, BACE 1 (Homo sapiens, UniProt P56817).
T1 construct: soluble (transmembrane domain and cytoplasmic extension excluded) human protein; made in house; host or cells: baculovirus expression system (insect cells implied)
T1 sequence (P56817 46-457 limits assumed): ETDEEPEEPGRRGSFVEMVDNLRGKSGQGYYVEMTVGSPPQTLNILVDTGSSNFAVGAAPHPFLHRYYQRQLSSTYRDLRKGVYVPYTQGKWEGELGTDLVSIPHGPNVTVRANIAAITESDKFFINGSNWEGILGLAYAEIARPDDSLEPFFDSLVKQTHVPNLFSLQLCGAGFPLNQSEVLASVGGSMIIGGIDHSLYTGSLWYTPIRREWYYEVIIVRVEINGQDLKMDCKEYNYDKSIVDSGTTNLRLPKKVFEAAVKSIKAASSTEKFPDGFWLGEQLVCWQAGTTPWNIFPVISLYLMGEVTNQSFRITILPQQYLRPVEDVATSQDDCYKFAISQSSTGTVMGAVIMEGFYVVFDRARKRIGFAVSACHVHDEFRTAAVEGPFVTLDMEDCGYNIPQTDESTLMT
Put plainly: ECL Assay: homogeneous end point electrochemiluminescence assay with biotinylated BACE substrate. The assay is classed as biochemical. The settings on record: soluble human enzyme, pH 6.5. The method, then:
Enzyme inhibition is determined as follows.
ECL Assay: A homogeneous end point electrochemiluminescence (ECL) assay is performed using a biotinylated BACE substrate. […] A typical reaction contains approximately 0.6 nM enzyme, 0.25 μM of the substrate, and buffer (50 mM Pipes, pH 6.5, 0.1 mg/ml BSA, 0.2% CHAPS, 15 mM EDTA and 1 mM deferoxamine) in a total reaction volume of 100 μl. […] To measure the inhibitory potency for compounds, 10 concentrations of inhibitors are prepared starting from 200 μM with three fold series dilution. Solutions of the inhibitor in DMSO are included in the reaction mixture (final DMSO concentration is 10%). All experiments are conducted at […] using the standard reaction conditions described above. To determine the IC50 of the compound, a four parameter equation is used for curve fitting.
With `O=C([C@@H]1CNC[C@H]1c1ccccc1Br)N1CCCC1Cc1ccccc1` (stereo partly drawn) [Example 8, 2-benzyl-1-{[(3S,4R)-4-(2-bromophenyl)pyrrolidin-3-yl]carbonyl}pyrrolidine], 67 µM corresponded to half-maximal inhibition (IC50).

As for `CCOc1ccc(-c2ccccc2[C@@H]2CNC[C@H]2C(=O)N2CCOC[C@@H]2c2ccccc2)cc1` [Example 12], the IC50 is 18 µM.

Molecule `O=C([C@@H]1CNC[C@H]1c1ccccc1Br)N1CCC2(C=Cc3ccccc32)CC1` [Example 38, 1-{[(3S,4R)-4-(2-bromophenyl)pyrrolidin-3-yl]carbonyl}spiro[indene-1,4′-piperidine]] registered an IC50 of 19 µM. The IC50 values of the last two molecules are within 1.5-fold of each other.

In turn, `CS(=O)(=O)c1ccc(-c2ccccc2[C@@H]2CNC[C@H]2C(=O)N2CCC3(C=Cc4ccccc43)CC2)cc1` [Example 64] showed an IC50 of 3 µM.

For `CS(=O)(=O)c1ccc(-c2ccccc2[C@@H]2CNC[C@H]2C(=O)N2CCC(c3ccccc3)CC2c2ccccc2)cc1` (stereo partly drawn) [Example 76, 1-({(3S,4R)-4-[4′-(methylsulfonyl)biphenyl-2-yl]pyrrolidin-3-yl}carbonyl)-2,4-diphenylpiperidine], the IC50 was found to be 3.5 µM.

The molecule `O=C([C@@H]1CNC[C@H]1c1ccccc1Br)N1CCC2(C=Cc3ccccc32)CC1c1ccccc1` (stereo partly drawn) [Example 79, 1′-{[(3S,4R)-4-(2-bromophenyl)pyrrolidin-3-yl]carbonyl}-2′-phenylspiro[indene-1,4′-piperidine]] yielded an IC50 of 1.8 µM. This IC50 is about 1.9-fold lower than that of the molecule before.

Consider `CS(=O)(=O)c1ccc(-c2ccccc2[C@@H]2CNC[C@H]2C(=O)N2CCC3(C=Cc4ccccc43)CC2c2ccccc2)cc1` (stereo partly drawn) [Example 83, 1′-({(3S,4R)-4-(4′-(methylsulfonyl)biphenyl-2-yl]pyrrolidin-3-yl}carbonyl)-2′-phenylspiro-[indene-1,4′-piperidine]], for which it took 0.38 µM to reach half-maximal inhibition (IC50).

Source of the values: patent US8354545B2, “3,4-substituted pyrrolidine beta-secretase inhibitors for the treatment of alzheimer's disease” (Merck, Sharp & Dohme, Corp., priority 2007, dated 2013).
